{"source": "patent US20250206708A1", "about": "“AN OXAZIRIDINE PLATFORM FOR TARGETING FUNCTIONAL ALLOSTERIC METHIONINE SITES” (Novartis AG, priority 2022, published 2025)", "tested_on": "CDK4", "assay": "Western blot of Rb phosphorylation (S780, S807/811) as cellular CDK4 activity", "format": "cell-based, human", "conditions": "serum-synchronized MCF-7 cells, dose of 500 μM", "description": "Cells were synchronized to G1 via serum starvation. Cells were plated at 50% confluency and allowed to adhere overnight in serum-containing media. The next morning, the cells were gently washed twice with HBSS, and serum-free media was added. Cells were allowed to incubate an additional […], […]. Final cell confluency should remain below 75% for optimal results.\nCells were seeded in full media at 8 e5 cells/well in a 6-well plate. They were then serum-synchronized, as outlined in Example 15, and treated with compound as described previously. Cells were monitored by eye for cell death and harvested once high-dose cells were round but not detached. Cells were transferred to ice and washed twice gently with 1 mL ice-cold PBS. 10 mL of lysis buffer was prepared by dissolved a protease-inhibitor table (Pierce; cat no. A32953) and a phosphatase-inhibitor tablet (Roche; cat no. 4906845001) in 10 mL PBS (1% Triton X-100). Cells were scraped to harvest, transferred to 1.5 mL Eppendorf tubes, and incubated at 4° C. for 30 min on a rotator. Samples were spun at 5000×g for 10 min to clarify lysate. Supernatant was transferred to a new tube and protein concentration quantified via BCA assay (Pierce; cat no. 23225). Samples were normalized to the lowest concentration using chilled lysis buffer. […]"}
{"smiles": "O=C(N1CC2COCC2C1)N1OC1c1ccccc1", "note": "(stereo not shown) [Compound 148]", "values": [{"measurement": "signal from pRb antibodies (cellular CDK4 activity)", "result": "marked decrease in signal"}]}
